Test results taken from ChEMBL document CHEMBL1201862, “PubChem BioAssay data set” (2004).
Active and inactive are the calls of the source.

Assays:
[1] = molecular target: T1, Tyrosine-protein phosphatase non-receptor type 7 (Homo sapiens, UniProt P35236); assay: HePTP tyrosine phosphatase activity blockers – biochemical, absorbance, leukemia target, primary screen (AID 521); type: functional
T1 sequence (P35236 whole entry): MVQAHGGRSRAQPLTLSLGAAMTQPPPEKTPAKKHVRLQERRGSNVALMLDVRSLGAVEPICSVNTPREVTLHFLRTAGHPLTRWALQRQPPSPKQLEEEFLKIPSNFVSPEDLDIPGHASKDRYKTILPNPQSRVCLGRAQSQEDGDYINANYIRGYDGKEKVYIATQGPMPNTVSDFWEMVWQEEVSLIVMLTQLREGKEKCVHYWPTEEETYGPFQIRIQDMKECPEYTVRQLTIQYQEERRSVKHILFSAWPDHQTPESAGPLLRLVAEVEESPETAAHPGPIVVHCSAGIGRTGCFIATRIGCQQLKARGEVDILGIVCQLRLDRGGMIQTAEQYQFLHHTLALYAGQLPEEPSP

[2] = M. tuberculosis growth inhibition, HTS (AID 449762); type: functional
[3] = microbe, parasite or virus in culture; type: functional; details: Mycobacterium tuberculosis
[4] = THP-1 cell cytotoxicity, dose response, cytotoxicity control for non-replicating M. tuberculosis project (AID 489025); type: functional
cells [5] = type: functional
NADPH oxidase 1 = molecular target: T2, NADPH oxidase 1 (Homo sapiens, UniProt Q9Y5S8); assay: Late-stage luminescence-based cell-based dose response assay to identify inhibitors of NADPH oxidase 1 (NOX1): Synthesized analogs 3.; type: functional
T2 sequence (Q9Y5S8 whole entry): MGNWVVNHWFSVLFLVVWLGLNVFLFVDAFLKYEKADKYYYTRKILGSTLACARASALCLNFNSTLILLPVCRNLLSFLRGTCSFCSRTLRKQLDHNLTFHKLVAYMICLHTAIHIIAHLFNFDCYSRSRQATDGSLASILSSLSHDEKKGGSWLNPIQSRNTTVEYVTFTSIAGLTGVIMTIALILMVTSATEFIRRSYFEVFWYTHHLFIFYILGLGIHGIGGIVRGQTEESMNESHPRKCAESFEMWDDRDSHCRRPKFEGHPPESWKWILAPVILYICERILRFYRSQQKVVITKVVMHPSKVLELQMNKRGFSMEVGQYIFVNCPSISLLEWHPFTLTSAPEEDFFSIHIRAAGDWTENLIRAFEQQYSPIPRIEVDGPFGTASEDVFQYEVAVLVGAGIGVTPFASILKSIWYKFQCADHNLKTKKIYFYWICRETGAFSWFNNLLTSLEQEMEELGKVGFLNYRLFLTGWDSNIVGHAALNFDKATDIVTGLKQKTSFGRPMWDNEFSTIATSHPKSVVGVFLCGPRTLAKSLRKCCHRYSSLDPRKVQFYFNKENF

14-3-3 protein gamma = 14-3-3 protein gamma (Homo sapiens, UniProt P61981); assay: modulators of 14-3-3 gamma client binding – dose response (AID 711); type: functional
Cytochrome P450 2C19 = Cytochrome P450 2C19 (Homo sapiens, UniProt P33261); assay: qHTS Assay for Inhibitors and Substrates of Cytochrome P450 2C19. [Related pubchem assays: 410 ]; type: ADME; details: read-out: Potency
Cytochrome P450 2D6 = Cytochrome P450 2D6 (Homo sapiens, UniProt P10635); assay: qHTS Assay for Inhibitors and Substrates of Cytochrome P450 2D6. [Related pubchem assays: 410 ]; type: ADME; details: read-out: Potency
Cytochrome P450 3A4 = Cytochrome P450 3A4 (Homo sapiens, UniProt P08684); details: Potency;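 further: confirmatory qHTS run detecting inhibitors and substrates of CYP3A4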
Cytochrome P450 2C9 = Cytochrome P450 2C9 (Homo sapiens, UniProt P11712); details: Potency
[6] = molecular target: Voltage-gated inwardly rectifying potassium channel KCNH2 (Homo sapiens, UniProt Q12809); assay: concentration-dependent hERG rescue from blockers – cell-based, thallium flux, dose response (AID 2121); type: ADME
[7] = molecular target: Solute carrier family 12 member 2/member 5 (Homo sapiens, UniProt P55011+Q9H2X9); assay: KCC2 and NKCC1 inhibition by rubidium flux, cell-based, NKCC1 counter-screen (AID 1734); type: functional, HEK293
[8] = luciferase reporter signal suppression in cells – H4 neuroglioma cells, luminescence, dose response (AID 1990); type: functional, cell-based
[9] = luciferase reporter signal reduction – luminescence, H4-C neuroglioblastoma cells, dose response (AID 2458); type: functional, cell-based;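 further: H4 neuroglioblastoma cells stably carrying a luciferase reporter gene fusion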
cells [10] = type: functional, cell-based
[11] = Luminescence Cell-Based Dose Response HTS to Identify Inhibitors of 5'UTR Stem-Loop Driven Prion Protein mRNA Translation in H4 Neuroglioblastoma Cells. [Related pubchem assays: 1827 (Project Summary), 1813 (Primary HTS)]; type: functional
Galanin receptor type 2 = Galanin receptor type 2 (Homo sapiens, UniProt O43603); assay: Dose Response cell-based high-throughput screening assay to identify antagonists of galanin receptor 2 (GALR2). [Related pubchem assays: 828, 866 ]; type: functional
[12] = alpha-synuclein stem-loop luciferase translation blockers – H4 neuroglioma cells, luminescence, confirmation (AID 1988); type: functional, cell-based
BJ [13] = assay: cells; type: functional, cell-based, Homo sapiens; details: Homo sapiens, BJ
[14] = Luminescence-based dose response cell-based high throughput screening assay for cytotoxic compounds using the IEC-6 intestinal epithelial cell line. [Related pubchem assays: 1858 (Summary AID.), 1825 (Counterscreen.), 1907 (Confirmation screen.)]; type: functional
BJ [15] = assay: BJ-TERT-LT-ST fibroblast viability loss – cell-based, RAS-independent, luminescence, dose response (AID 1935); type: functional, Homo sapiens; details: Homo sapiens, BJ;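 further: BJ fibroblasts immortalized with TERT plus LT and ST oncogenes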
[16] = alpha-synuclein stem-loop translation blockers – luminescence, H4 neuroglioblastoma cells, dose confirmation, confirmation (AID 2454); type: functional, cell-based;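 further: H4 neuroglioblastoma cells carrying an alpha-synuclein 5'UTR luciferase reporter; potency for inhibition of the luciferase signal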
[17] = HEK-293T cell viability reduction – luminescence, B-cell screen hits, cytotoxicity control for BCR NF-kB inhibitor project, dose response (AID 489021); type: functional, cell-based;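 further: HEK-293T cells carrying an NF-kB luciferase reporter; cells exposed to compound for about 14 hours before viability readout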
[18] = molecular target: T3, High affinity choline transporter 1 (Homo sapiens, UniProt Q9GZV3); assay: human choline transporter blockers, potency – cell-based, 5-point CRC, membrane potential dye, dose response (AID 504840); type: functional
T3 sequence (Q9GZV3 whole entry): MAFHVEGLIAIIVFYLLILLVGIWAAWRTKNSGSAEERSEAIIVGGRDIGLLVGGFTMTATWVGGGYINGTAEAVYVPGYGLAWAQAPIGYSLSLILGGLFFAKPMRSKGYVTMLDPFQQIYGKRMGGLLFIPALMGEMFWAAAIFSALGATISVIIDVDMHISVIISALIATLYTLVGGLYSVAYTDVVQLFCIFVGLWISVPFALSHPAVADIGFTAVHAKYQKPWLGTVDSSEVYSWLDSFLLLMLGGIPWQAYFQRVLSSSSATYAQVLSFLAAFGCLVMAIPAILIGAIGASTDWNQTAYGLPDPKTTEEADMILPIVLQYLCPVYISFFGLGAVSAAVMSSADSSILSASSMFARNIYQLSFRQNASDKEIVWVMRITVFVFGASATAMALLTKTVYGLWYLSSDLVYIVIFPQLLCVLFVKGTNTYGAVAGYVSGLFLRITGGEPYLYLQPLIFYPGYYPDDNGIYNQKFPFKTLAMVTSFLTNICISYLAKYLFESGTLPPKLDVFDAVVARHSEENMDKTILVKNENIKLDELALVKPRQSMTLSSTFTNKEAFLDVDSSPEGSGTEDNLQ

INS1 = assay: INS-1E survival protection against cytokine death – cell-based, luminescence, retest, dose response (AID 449756); type: functional; details: Rattus norvegicus;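 further: cell death triggered by IL-1 beta plus TNF-alpha plus IFN-gamma mixture; protective hits raise ATP signal compared with cytokine alone wells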
[19] = molecular target: T3, High affinity choline transporter 1; assay: human choline transporter blockers, potency – cell-based, 10-point CRC, membrane potential dye, dose response (AID 588401); type: functional;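 further: membrane potential dye fluorescence of choline-evoked depolarization via CHT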
[20] = molecular target: Photoreceptor-specific nuclear receptor (Homo sapiens, UniProt Q9Y5X4); type: functional, cell-based;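 further: CHO-S cells with Gal4-NCOR and VP16-NR2E3 two-hybrid luciferase reporter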
Paired box protein Pax-8 = Paired box protein Pax-8 (Homo sapiens, UniProt Q06710); assay: PAX8 transcriptional activity inhibition in RMG-I – RMG-I cells, luciferase, cherry-pick, dose response (AID 687027); type: functional, cell-based;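 further: luciferase reporter driven by Pax8 target thyroperoxidase promoter measured by SteadyGlo luminescence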
Major prion protein = Major prion protein (Homo sapiens, UniProt P04156); type: functional, cell-based
cells [21] = assay: cells
[22] = molecular target: Aryl hydrocarbon receptor (Homo sapiens, UniProt P35869); assay: Luminescence-based cell-based high throughput dose response assay for activators of the Aryl Hydrocarbon Receptor (AHR). [Related pubchem assays: 2796 (Primary screen (AHR activators in singlicate)), 2845 (Confirmation screen (AHR activators in triplicate)), 434939 (Counterscreen (PXR activators in triplicate)), 2804 (Summary (AHR activators))]; type: ADME

With `Cc1cc(C)cc(OCCCCCNCCO)c1` the IC50 [1] was > 100 µM (not active).

For `CCCCNC(=O)Nc1nnc(-c2ccc(OCC)cc2)o1`, the IC50 [2] was > 100 µM (active), the CC50 [3] was > 40 µM (active) and the CC50 [4] was > 40 µM (active). The IC50 (cells [5]) was 26.2 µM (active).

For `CN1c2ccccc2Sc2cc(C(=O)c3ccc(N=[N+]=[N-])cc3)ccc21`, the IC50 (NADPH oxidase 1) was > 20 µM (not active).

With `CCOC(=O)N1CCC(NC(=O)CSCc2nc(-c3ccc(OC)c(OC)c3)oc2C)CC1` the IC50 (14-3-3 protein gamma) was > 50 µM (not active).

For `O=c1c(O)c(-c2ccc(O)c(O)c2)oc2ccccc12`, the AC50 (Cytochrome P450 2C19) was 25.1 µM (inconclusive), the AC50 (Cytochrome P450 2D6) was 31.6 µM (inconclusive) and the AC50 (Cytochrome P450 3A4) was 31.6 µM (inconclusive). For the same molecule, the AC50 (Cytochrome P450 2C9) was 31.6 µM (inconclusive).

In the case of `COc1ccc(C(=O)CC(=O)C(=O)Nc2ccc(Cl)cc2)cc1`, the EC50 [6] is reported as 1.74 µM (active).

With `Cc1nc(CC(=O)Nc2nc(-c3ccccc3)cs2)cs1` the IC50 [7] was 79 µM (active).

With `CC1CCC/C=C/C2CC(O)CC2C(O)/C=C/C(=O)O1` (configuration not stated) the EC50 [8] was < 0.1 µM (active), the EC50 [9] was 0.078 µM (active) and the EC50 (cells [10]) was 0.078 µM (active). The EC50 [11] was < 0.1 µM (active), the IC50 (Galanin receptor type 2) was > 42 µM (not active) and the EC50 [12] was < 0.1 µM (active). For the same molecule, the EC50 (BJ [13]) was > 150 µM (inconclusive), the IC50 [14] was 0.353 µM (active) and the EC50 (BJ [15]) was < 0.12 µM (active). The EC50 [16] was 0.071 µM (active), the IC50 [17] was > 80 µM (inactive) and the IC50 [18] was 1.87 µM (active). For the same molecule, the AC50 (INS1) was 0.74 µM (active), the IC50 [19] was 3.03 µM (active) and the IC50 [20] was 0.714 µM (active). The AC50 (Paired box protein Pax-8) was < 0.26 µM (active), the IC50 (Major prion protein) was 3.43 µM (active) and the IC50 (cells [21]) was > 138 µM (inactive).

With `Cc1nccc(-c2ccc(-n3cnc4ccccc43)cc2)n1` the EC50 [22] was > 1.13 µM (active).
